“And” between values parts separate entries of the source, which are not always exact repeats. Equal entries are not always repeated.
Tests used:
ALSV MTase [1] = target: T1, ALSV MTase (Alongshan virus, UniProt A0A344X2I6); assay: biochemical; format: binding
ALSV MTase [2] = target: T1, ALSV MTase; format: biochemical

Row | Compound | N index (binding stoichiometry) (ALSV MTase [1]) | inhibition of ALSV MTase methyltransferase activity (ALSV MTase [2]) | Kd (ALSV MTase [1]) [µM]
1 | Nc1ncnc2c1ncn2[C@@H]1O[C@H](CSCC[C@H](N)C(=O)O)[C@@H](O)[C@H]1O [SAH, S-adenosyl-L-homocysteine] | 0.95 ± 0.05 and 1.05 ± 0.06 | – | –
2 | Nc1ncnc2c1ncn2[C@@H]1O[C@H](C[C@@H](N)CC[C@H](N)C(=O)O)[C@@H](O)[C@H]1O [SIN, sinefungin] | – | preserved its inhibitory capacity | 12.6 ± 2.8
